Source: patent US11945836B2, “Compositions and methods for treating CNS disorders” (Sage Therapeutics, Inc., priority 2014, dated 2024)

The compounds below were run against rat brain cortical membranes ([35S]-TBPS binding) (assay: Steroid inhibition of [35S]-TBPS binding (radioligand displacement)). Conditions: 3 nM [35S]-TBPS, in the presence of 5 μM GABA.
Experimental: Steroid Inhibition of TBPS Binding
TBPS binding assays using rat brain cortical membranes in the presence of 5 μM GABA has been described (Gee et al, J. Pharmacol. Exp. Ther. 1987, 241, 346-353; Hawkinson et al, Mol. Pharmacol. 1994, 46, 977-985; Lewin, A. H et al., Mol. Pharmacol. 1989, 35, 189-194).
Briefly, cortices are rapidly removed following decapitation of carbon dioxide-anesthetized Sprague-Dawley rats (200-250 g). The cortices are homogenized in 10 volumes of ice-cold 0.32 M sucrose using a glass/teflon homogenizer and centrifuged at 1500×g for 10 min at 4° C. The resultant supernatants are centrifuged at 10,000×g for 20 min at 4° C. to obtain the P2 pellets. The P2 pellets are resuspended in 200 mM NaCl/50 mM Na—K phosphate pH 7.4 buffer and centrifuged at 10,000×g for 10 min at 4° C. This washing procedure is repeated twice and the pellets are resuspended in 10 volumes of buffer. Aliquots (100 uL) of the membrane suspensions are incubated with 3 nM [^35S]-TBPS and 5 μL aliquots of test drug dissolved in dimethyl sulfoxide (DMSO) (final 0.5%) in the presence of 5 μM GABA. The incubation is brought to a final volume of 1.0 mL with buffer. […] Following a 90 min incubation at room temp, the assays are terminated by filtration through glass fiber filters (Schleicher and Schuell No. 32) using a cell harvester (Brandel) and rinsed three times with ice-cold buffer. Filter bound radioactivity is measured by liquid scintillation spectrometry. Non-linear curve fitting of the overall data for each drug averaged for each concentration is done using Prism (GraphPad). […] The concentration of test compound producing 50% inhibition (IC50) of specific binding and the maximal extent of inhibition (Imax) are determined for the individual experiments with the same model used for the overall data and then the means±SEMs of the individual experiments are calculated.
Various compounds are or can be screened to determine their potential as modulators of [^35S]-TBPS binding in vitro. These assays are or can be performed in accordance with the above discussed procedures.
COC[C@]12CC[C@@](C)(O)C[C@@H]1CC[C@H]1[C@@H]3CC[C@H](C(=O)c4cccc(OC)c4)[C@@]3(C)CC[C@@H]12 [Compound 106] gave an IC50 of over 100 nM.
COc1cc(OC)cc(C(=O)[C@H]2CC[C@H]3[C@@H]4CC[C@H]5C[C@](C)(O)CC[C@]5(C)[C@H]4CC[C@]23C)c1 [Compound 13] showed an IC50 of over 100 nM.
For C[C@@]1(O)CC[C@@]2(C)[C@H](CC[C@@H]3[C@@H]2CC[C@]2(C)[C@@H](C(=O)c4ccc(OC(F)(F)F)cc4)CC[C@@H]32)C1 [Compound 47], the IC50 was 20 to 50 nM.
Work on C[C@@]1(O)CC[C@@]2(C)[C@H](CC[C@@H]3[C@@H]2CC[C@]2(C)[C@@H](C(=O)c4ccc(F)cc4)CC[C@@H]32)C1 [Compound 54] yielded an IC50 of 50 to 100 nM.
C[C@@]1(O)CC[C@H]2[C@H](CC[C@@H]3[C@@H]2CC[C@]2(C)[C@@H](C(=O)c4cc5ccccc5o4)CC[C@@H]32)C1 [Compound 5] showed an IC50 of 20 to 50 nM.
Compound C[C@@]1(O)CC[C@@]2(C)[C@@H](CC[C@@H]3[C@@H]2CC[C@]2(C)[C@@H](C(=O)c4ccc5ccccc5c4)CC[C@@H]32)C1 [Compound 14] has an IC50 of 50 to 100 nM.
For C[C@@]1(O)CC[C@@]2(C)[C@@H](CC[C@@H]3[C@@H]2CC[C@]2(C)[C@@H](C(=O)c4ccc(F)cc4)CC[C@@H]32)C1 [Compound 79], the IC50 was over 100 nM.
COc1ccc2cc(C(=O)[C@H]3CC[C@H]4[C@@H]5CC[C@@H]6C[C@](C)(O)CC[C@]6(C)[C@H]5CC[C@]34C)ccc2c1 [Compound 85] showed an IC50 of over 100 nM.
For COC[C@]12CC[C@@](C)(O)C[C@@H]1CC[C@H]1[C@@H]3CC[C@H](C(=O)c4ccc(C)cc4)[C@@]3(C)CC[C@@H]12 [Compound 92], the IC50 was over 100 nM.
Compound C[C@@]1(O)CC[C@@]2(C)[C@H](CC[C@@H]3[C@@H]2CC[C@]2(C)[C@@H](C(=O)c4cccc(F)c4)CC[C@@H]32)C1 [Compound 83] has an IC50 of 20 to 50 nM.
Compound C[C@@]1(O)CC[C@H]2[C@H](CC[C@@H]3[C@@H]2CC[C@]2(C)[C@@H](C(=O)c4coc5ccccc45)CC[C@@H]32)C1 [Compound 12] has an IC50 of 20 to 50 nM.
For COc1ccc(C(=O)[C@H]2CC[C@H]3[C@@H]4CC[C@H]5C[C@](C)(O)CC[C@@H]5[C@H]4CC[C@]23C)cc1 [Compound 87], the IC50 was over 100 nM.
Work on C[C@@]1(O)CC[C@H]2[C@H](CC[C@@H]3[C@@H]2CC[C@]2(C)[C@@H](C(=O)c4csc5ccccc45)CC[C@@H]32)C1 [Compound 11] yielded an IC50 of 20 to 50 nM.
COC[C@]12CC[C@@](C)(O)C[C@@H]1CC[C@H]1[C@@H]3CC[C@H](C(=O)c4cccc(C)c4)[C@@]3(C)CC[C@@H]12 [Compound 103] was tested, and the IC50 was over 100 nM.
With COC[C@]12CC[C@@](C)(O)C[C@@H]1CC[C@H]1[C@@H]3CC[C@H](C(=O)c4ccc(OC)cc4)[C@@]3(C)CC[C@@H]12 [Compound 107] the IC50 was 50 to 100 nM.
C[C@@]1(O)CC[C@H]2[C@H](CC[C@@H]3[C@@H]2CC[C@]2(C)[C@@H](C(=O)c4ccc(-c5ccccc5)cc4)CC[C@@H]32)C1 [Compound 44] gave an IC50 of 50 to 100 nM.
With C[C@@]1(O)CC[C@H]2[C@H](CC[C@@H]3[C@@H]2CC[C@]2(C)[C@@H](C(=O)c4ccc5ccccc5c4)CC[C@@H]32)C1 [Compound 19] the IC50 was 50 to 100 nM.
Work on C[C@@]1(O)CC[C@@]2(C)[C@@H](CC[C@@H]3[C@@H]2CC[C@]2(C)[C@@H](C(=O)c4cccnc4)CC[C@@H]32)C1 [Compound 125] yielded an IC50 of 20 to 50 nM.
For C[C@@]1(O)CC[C@H]2[C@H](CC[C@@H]3[C@@H]2CC[C@]2(C)[C@@H](C(=O)c4ccccn4)CC[C@@H]32)C1 [Compound 60], the IC50 was over 100 nM.
With C[C@@]1(O)CC[C@@]2(C)[C@@H](CC[C@@H]3[C@@H]2CC[C@]2(C)[C@@H](C(=O)c4cc(F)cc(F)c4)CC[C@@H]32)C1 [Compound 37] the IC50 was 50 to 100 nM.
CSc1ccc(C(=O)[C@H]2CC[C@H]3[C@@H]4CC[C@@H]5C[C@](C)(O)CC[C@@H]5[C@H]4CC[C@]23C)cc1 [Compound 25] showed an IC50 of 20 to 50 nM.
In the case of C[C@@]1(O)CC[C@@]2(C)[C@H](CC[C@@H]3[C@@H]2CC[C@]2(C)[C@@H](C(=O)c4ccccc4)CC[C@@H]32)C1 [Compound 28], the IC50 is reported as 20 to 50 nM.
C[C@@]1(O)CC[C@@]2(C)[C@@H](CC[C@@H]3[C@@H]2CC[C@]2(C)[C@@H](C(=O)c4ccc5c(c4)OCO5)CC[C@@H]32)C1 [Compound 133] gave an IC50 of over 100 nM.
CN(C)c1ccc(C(=O)[C@H]2CC[C@H]3[C@@H]4CC[C@H]5C[C@](C)(O)CC[C@]5(C)[C@H]4CC[C@]23C)cc1 [Compound 114] showed an IC50 of over 100 nM.
Compound C[C@@]1(O)CC[C@H]2[C@H](CC[C@@H]3[C@@H]2CC[C@]2(C)[C@@H](C(=O)c4cccnc4)CC[C@@H]32)C1 [Compound 70] has an IC50 of 50 to 100 nM.
With COc1cccc(C(=O)[C@H]2CC[C@H]3[C@@H]4CC[C@H]5C[C@](C)(O)CC[C@]5(C)[C@H]4CC[C@]23C)c1 [Compound 77] the IC50 was over 100 nM.
In the case of Cc1ccc(C(=O)[C@H]2CC[C@H]3[C@@H]4CC[C@H]5C[C@](C)(O)CC[C@]5(C)[C@H]4CC[C@]23C)cc1F [Compound 45], the IC50 is reported as over 100 nM.
With Cn1nccc1C(=O)[C@H]1CC[C@H]2[C@@H]3CC[C@@H]4C[C@](C)(O)CC[C@@H]4[C@H]3CC[C@]12C [Compound 9] the IC50 was 20 to 50 nM.
In the case of Cc1cc(C(=O)[C@H]2CC[C@H]3[C@@H]4CC[C@@H]5C[C@](C)(O)CC[C@]5(C)[C@H]4CC[C@]23C)ccc1F [Compound 137], the IC50 is reported as 20 to 50 nM.
CN(C)c1ccc(C(=O)[C@H]2CC[C@H]3[C@@H]4CC[C@@H]5C[C@](C)(O)CC[C@]5(C)[C@H]4CC[C@]23C)cc1 [Compound 40] gave an IC50 of 20 to 50 nM.
With CN(C)c1ccc(C(=O)[C@H]2CC[C@H]3[C@@H]4CC[C@H]5C[C@](C)(O)CC[C@@H]5[C@H]4CC[C@]23C)cc1 [Compound 111] the IC50 was over 100 nM.
Compound COc1ccc(C(=O)[C@H]2CC[C@H]3[C@@H]4CC[C@H]5C[C@](C)(O)CC[C@]5(C)[C@H]4CC[C@]23C)cc1 [Compound 76] has an IC50 of over 100 nM.
With COc1ccc(C(=O)[C@H]2CC[C@H]3[C@@H]4CC[C@@H]5C[C@](C)(O)CC[C@]5(C)[C@H]4CC[C@]23C)cc1 [Compound 61] the IC50 was over 100 nM.
Compound C[C@@]1(O)CC[C@H]2[C@H](CC[C@@H]3[C@@H]2CC[C@]2(C)[C@@H](C(=O)c4ccc5c(c4)OCO5)CC[C@@H]32)C1 [Compound 35] has an IC50 of under 20 nM.
For C[C@@]1(O)CC[C@H]2[C@H](CC[C@@H]3[C@@H]2CC[C@]2(C)[C@@H](C(=O)c4cnc[nH]4)CC[C@@H]32)C1 [Compound 88], the IC50 was over 100 nM.
Compound C[C@@]1(O)CC[C@H]2[C@H](CC[C@@H]3[C@@H]2CC[C@]2(C)[C@@H](C(=O)c4ccc(OC(F)(F)F)cc4)CC[C@@H]32)C1 [Compound 34] has an IC50 of under 20 nM.
Cc1ccc(C(=O)[C@H]2CC[C@H]3[C@@H]4CC[C@@H]5C[C@](C)(O)CC[C@@H]5[C@H]4CC[C@]23C)cc1F [Compound 41] showed an IC50 of 20 to 50 nM.
In the case of Cc1ccsc1C(=O)[C@H]1CC[C@H]2[C@@H]3CC[C@@H]4C[C@](C)(O)CC[C@@H]4[C@H]3CC[C@]12C [Compound 46], the IC50 is reported as over 100 nM.
Cc1ccc(C(=O)[C@H]2CC[C@H]3[C@@H]4CC[C@H]5C[C@](C)(O)CC[C@]5(C)[C@H]4CC[C@]23C)cc1 [Compound 75] was tested, and the IC50 was over 100 nM.
C[C@@]1(O)CC[C@@]2(C)[C@@H](CC[C@@H]3[C@@H]2CC[C@]2(C)[C@@H](C(=O)c4ccccn4)CC[C@@H]32)C1 [Compound 113] was tested, and the IC50 was over 100 nM.
Cc1ccc(C(=O)[C@H]2CC[C@H]3[C@@H]4CC[C@@H]5C[C@](C)(O)CC[C@@H]5[C@H]4CC[C@]23C)cc1C [Compound 20] gave an IC50 of 50 to 100 nM.
For CSc1ccc(C(=O)[C@H]2CC[C@H]3[C@@H]4CC[C@@H]5C[C@](C)(O)CC[C@]5(C)[C@H]4CC[C@]23C)cc1 [Compound 48], the IC50 was 20 to 50 nM.
